Laboratory results as given in patent US20240115532A1, “USE OF L-ERGOTHIONEINE FOR ALLEVIATING AND PREVENTING AGE-RELATED VISUAL DEGENERATION” (NANJING NUTRABUILDING BIO-TECH CO., LTD., priority 2021, published 2024).

Experiments:
[1] = test system: subretinal choroidal neovascularization (CNV); assay: Fluorescein angiography of Matrigel-induced subretinal CNV in aged mice; format: in vivo, C57BL/6J mice; settings: 2 or 10 mg/kg/d by gavage for 5 months
Text: The healthy and male C57BL/6J mice at 18-24 months of age were maintained under the barrier conditions in a temperature-controlled environment and fed a commercial mouse chow.
The healthy and male C57BL/6J mice at 14-18 months of age were maintained under the barrier conditions in a temperature-controlled environment and fed a commercial mouse chow.
Animal mode of subretinal choroidal neovascularization (CNV): All mice were subretinally injected with Matrigel in both eyes under general anesthesia. The liquid Matrigel (75% v/v) was prepared using phosphate-buffered saline (PBS) at 4° C. After exposing the sclera, an incision was made between the limbus and the equator using a sharp No. 33 size needle. The Matrigel suspension (0.5 μl per eye) administered via a Hamilton microsyringe with a No. 33 blunt tip needle was slowly injected into the subretinal space along the previous needle tract. Following injection, the Matrigel polymerized to form a solid gel. Fluorescence angiograms were performed over a period of 3 weeks to identify whether mice have CNV.
Fluorescein angiography: After subretinal injection, fluorescein angiograms were obtained on days 3, 7, 10, 14, and 21. Briefly, every mouse group (n=5) were anesthetized with ketamine and xylazine, and the pupils were dilated with 0.5% tropicamide eye drops. […]

[2] = test system: zebrafish retinal structure; assay: Zebrafish eye histopathology (H&E) after cobalt chloride model; format: in vivo; settings: FIG. 2
Text: Experimental animals, sample preparation, sample processing and administration are same as test 4. After that, these zebrafish after 3 days of administration were fixed with 4% histiocyte fixative, then stained with H&E and they were subject to test ocular histopathological analysis.

[3] = test system: Reactive oxygen species (ROS); assay: ROS in retina tissue by 2',7'-dichlorofluorescein diacetate fluorescence; format: in vivo, C57BL/6J mice; settings: aged mice, 2 or 10 mg/kg/d by gavage for 5 months
Protocol: (§1) They were randomly divided into three groups: (1) non-supplement group (Con, n=6); (2) L-Ergothioneine supplement group with low dosage (L-Ergothioneine, 2 mg/kg/d, n=6); (3) L-Ergothioneine supplement group with high dosage (L-Ergothioneine, 10 mg/kg/d, n=6). Some mice were administered L-Ergothioneine for once daily by gavage in normal saline solution for 5 months.
(§2) Mice were euthanized by CO2 inhalation followed by cervical dislocation at the end of study and their eyes were immediately removed. The eyes of some mice (n=3) fixed in 2% paraformaldehyde for 2 h and the retina samples of some mice (n=3) were isolated from eyes radically. All tissues were frozen in optimal cutting temperature embedding compound.
Partial retina tissues were obtained and rapidly broken up in ice-cold normal saline. A tissue homogenate (10%, w/v) was then prepared.
Antioxidant capacity of the retina was measured using an assay based on the ability of the sample to inhibit the oxidation of 2,2′-azino-di-[3-ethylbenzthiazoline sulfonate]+(ABTS) by metmyoglobin. The amount of ABTS+ produced was measured in terms of the decrease in absorbance caused by the antioxidants in the sample. Reactive oxygen species (ROS) were quantified by fluorescence spectroscopy using 2′,7′-dichlorofluorescein diacetate.

hif-1α genes = assay: Zebrafish q-PCR of hif-1α genes; format: in vivo; settings: 3 days at 28° C., FIG. 5
Protocol: (§3) After 3 days of supplementation at 28° C., the total RNA of each group of zebrafish was extracted using an RNA rapid extraction kit, and the concentration and purity of total RNA were determined by UV-Vis spectrophotometer. Take 2.00 μg of total RNA from zebrafish samples and follow the instructions of the first-strand cDNA synthesis kit to synthesize 20.0 μL of cDNA, and detect the expression of ß-actin and VEGFR1 genes by q-PCR. Using 6-actin as an internal reference for gene expression, the relative RNA expression levels of VEGFR1 genes were calculated.
(§4) The other test condition and methods are the same as test 7. Except that just detect 6-actin, hif-1α and vegfaa genes by q-PCR.

VEGF = VEGF ELISA in retina tissue homogenate; format: in vivo, C57BL/6J mice; settings: aged mice, 2 or 10 mg/kg/d by gavage for 5 months
Protocol: They were randomly divided into three groups: (1) non-supplement group (Con, n=6); (2) L-Ergothioneine supplement group with low dosage (L-Ergothioneine, 2 mg/kg/d, n=6); (3) L-Ergothioneine supplement group with high dosage (L-Ergothioneine, 10 mg/kg/d, n=6). Some mice were administered L-Ergothioneine for once daily by gavage in normal saline solution for 5 months. […] Partial retina tissues were obtained and rapidly broken up in ice-cold normal saline. A tissue homogenate (10%, w/v) was then prepared. Retina tissues homogenate was centrifuged (2000 rpm, 10 min, 4° C.) and the supernatants were collected and applied to a pre-coated human VEGF microplate. VEGF concentrations was measured in experimental groups of mice using enzyme-linked immunosorbent assay (ELISA) kits to evaluate the levels of proinflammatory cytokines in the retina. This test can assess that the ability of L-Ergothioneine to prevent age-related visual degeneration-induced increases in VEGF level.

vegfaa genes = assay: Zebrafish q-PCR of vegfaa genes; format: in vivo; settings: 3 days at 28° C., FIG. 6
Protocol: as §3, §4

ROS = assay: Zebrafish ROS fluorescence value (CM-H2DCFDA); format: in vivo; settings: wild-type AB strain, 500, 1000, 2000 μg/mL, 2 days plus 20 hours staining, FIG. 3
Protocol: After 2 days of supplementation at 28° C., zebrafish were stained with CM-H2DCFDA, and the original concentration in each well remained unchanged. 10 zebrafish were randomly selected from each experimental group and transferred to black 96 microtiter plates.

[4] = test system: subretinal choroidal neovascularization; assay: Zebrafish wet macular degeneration model (cobalt chloride), choroidal vessel area; format: in vivo; settings: 500, 1000, 2000 μg/mL in water, 3 days, 28° C., FIG. 1
Protocol: Experimental animals: Zebrafish were raised in fish water at 28° C. (water quality: 200 mg of instant sea salt was added to each 1 L of reverse osmosis water, the conductivity was 450-550 μS/cm; pH was 6.5-8.5; hardness was […] CaCO3). Transgenic vascular green fluorescent zebrafish (Fli-1 strain) were reproduced by natural paired mating. Age is 1 day after fertilization (1 dpf).
Sample preparation: L-Ergothioneine, white powder, was prepared into 2.00 mg/mL mother solution with standard dilution water. Positive control: Aescin and digitalis double glucoside eye drops was directly sucked the original solution.
Experimental design: The transgenic vascular green fluorescent strain zebrafish aged 1 day after fertilization (1 dpf) were randomly selected and placed in a 6-well plate, with 30 fish in each well (each experimental group). L-Ergothioneine (concentrations of 500, 1000, and 2000 μg/mL) were administered in water solution, respectively, and the positive control escin and digitalis glucoside eye drops (containing 0.3 μg/mL of digitonin and 2.0 μg/mL of escin) were administered, respectively. […] After 3 days of treatment at 28° C., 10 zebrafish were randomly selected from each experimental group and placed under a fluorescence microscope to take pictures, and the NIS-Elements D 3.20 advanced image processing software was used to analyze and collect the data. […]

[5] = test system: oxidation-induced EMT in RPE; assay: Immunoreactivity of mesenchymal markers (Slug, Snail, vimentin, OB-cadherin) in RPE sections; format: in vivo, C57BL/6J mice; settings: aged mice, 2 or 10 mg/kg/d by gavage for 5 months
Protocol: as §1, §2
From paraffin embedded blocks, 3 μm-thick parasagittal serial sections were cut with a microtome for future testing the immunoreactivity of mesenchymal markers. The immunoreactivity of mesenchymal markers (Slug, Snail, vimentin, OB-cadherin) was examined with a confocal microscope. And semi-quantitative comparative densitometric analysis performed by ImageJ of the immunoreactivity of the mesenchymal markers in 1-μm parasagittal sections of RPE. Alexa Fluor secondary antibodies were used to detect specific mesenchymal markers. DAPI (4,6-diamidino-2-fenilindole, dihydrochloride) was used to stain the nuclei of RPE cells.

Nrf2 = Nrf2 real-time PCR in retina tissues; format: in vivo, C57BL/6J mice; settings: aged mice, 2 or 10 mg/kg/d by gavage for 5 months
Protocol: as §1, §2
Total RNA was isolated from retina tissues using Trizol reagent. Real-time PCR was measured and performed with the following primers: Nrf2 forward 5′-[…]-3′. RNA samples were reverse-transcribed to cDNA and subjected to quantitative PCR, performed with a Light Cycler 96 Real-Time PCR System using the AceQ qPCR SYBR Green Master Mix. Nrf2 measurements can be identify the capacity of L-Ergothioneine-mediated Nrf2.

VEGFR1 genes = assay: Zebrafish q-PCR of VEGFR1 genes; format: in vivo; settings: 3 days at 28° C., β-actin internal reference, FIG. 4
Protocol: Except that the positive control is bevacizumab (a potent antiangiogenic substance), experimental animals, sample preparation of L-Ergothioneine and sample processing are the same as in test 4.
as §3

SMILES: C[N+](C)(C)[C@@H](Cc1c[nH]c(=S)[nH]1)C(=O)[O-] [L-Ergothioneine]
- CNV level [1]: attenuated obviously
- damage of zebrafish retinal structure (histopathological section) ([2]; 500, 1000, 2000 μg/mL, 3 days, H&E): can improve the damage of zebrafish retinal structure
- effect on retinal structure compared with positive control eye drops ([2]; versus aescin and digitalis double glucoside eye drops): better than that of aescin and digitalis double glucoside eye drops
- scavenging of chronic ROS in retina [3]: about 45%
- relative expression level of hif-1α genes (hif-1α genes): lowering the expression level
- decrease of VEGF level in retina (VEGF): about 50%
- relative expression level of vegfaa genes (vegfaa genes): lowering the expression level
- ROS fluorescence value of zebrafish (ROS): good effect on preventing retinal degeneration
- choroidal vessel area of the zebrafish eye [4]: could mitigate subretinal choroidal neovascularization
- mesenchymal marker immunoreactivity in RPE [5]: decreased
- oxidation-induced EMT / epithelial fibrosis in RPE [5]: inhibited
- activation of Nrf2-mediated genes in retina (Nrf2): activated
- relative expression level of VEGFR1 genes (VEGFR1 genes): decreasing the expression of VEGFR1 genes
